Earlier results as cited in US20240382500A1, “DOPAMINE RECEPTOR AGONISTS OR ANGIOTENSIN RECEPTOR BLOCKERS OR COMBINATIONS THEREOF FOR COVID-19 SEQUELAE” (priority 2023, published 2024).

Assays:
[1] = in vivo
[2] = dosages up to 15 mg/day, subjects with early-stage Parkinson's disease
[3] = 250 mg/day, characterized as a low dose
[4] = tested on: natural killer cells (NKCs)

Cc1cc(Oc2ncccc2C(F)(F)F)ccc1-c1c(C)c(=O)[nH]c(=O)n1C [PF-06649751]
safety and tolerability in human subjects [1]: safe and well tolerated
motor symptoms [2]: significant improvement

Oc1cc2c(cc1O)C(c1ccccc1)CNCC2 (centres unmarked) [SKF38393]
tolerability in preclinical studies: well tolerated
clinical benefit in schizophrenia [3]: failed to show a clinical benefit
NKC cytotoxicity [4]: augments

CCOc1nc2cccc(C(=O)O)c2n1Cc1ccc(-c2ccccc2-c2nn[nH]n2)cc1 [Candesartan]
microglial phagocytosis (microglia): strengthens
action of ANG II on ICAM-1 (ICAM-1): inhibit
HMGB1 (HMGB1): lower
